# According to patent US20020035061A1, “COMPOSITIONS AND METHODS FOR TREATING INFECTIONS USING CATIONIC PEPTIDES ALONE OR IN COMBINATION WITH ANTIBIOTICS” (priority 1996, published 2002):
# Experiments:
# Assay type in all cases: cell-based
# A. calcoaceticus = A. calcoaceticus strain AC002
# E. cloacae = E. cloacae strain ECL007
# E. coli = E. coli strain ECO005
# E. faecalis = E. faecalis strain EFS001
# K. pneumoniae = K. pneumoniae strain KP001
# P. aeruginosa = P. aeruginosa strain PA004
# S. aureus = S. aureus strain SA093
# S. epidermidis = S. epidermidis strain SE010
# S. maltophilia = S. maltophilia strain SMA002
# S. marcescens = S. marcescens strain SMS003
# bacterial isolates = assay: microbe, parasite or virus in culture
# [1] = system: inherently resistant microorganisms; assay: microbe, parasite or virus in culture
# [2] = system: microorganisms with acquired resistance; assay: microbe, parasite or virus in culture
# [3] = peptide + Amikacin, P. aeruginosa PA022
# [4] = peptide + Gentamicin, A. baumannii ABI001
# [5] = peptide + Gentamicin, A. baumannii ABI002
# [6] = peptide + Gentamicin, A. calcoaceticus AC001
# [7] = peptide + Gentamicin, P. aeruginosa PA041
# [8] = peptide + Gentamicin, S. maltophilia SMA019
sequence,measurement,setting,value
ILRWPWWPWRRKIMILKKAGS [MBI 11B16CN],MIC,A. calcoaceticus,4 µg/mL
same,MIC,E. cloacae,>128 µg/mL
same,MIC,E. coli,16 µg/mL
same,MIC,E. faecalis,2 µg/mL
same,MIC,K. pneumoniae,16 µg/mL
same,MIC,P. aeruginosa,>128 µg/mL
same,MIC,S. aureus,2 µg/mL
same,MIC,S. epidermidis,4 µg/mL
same,MIC,S. maltophilia,32 µg/mL
same,MIC,S. marcescens,>128 µg/mL
same,Peptide MIC Alone,"bacterial isolates; 1. Amikacin, A. baumannii ABI001",32 µg/mL
same,Peptide MIC Alone,"bacterial isolates; 1. Amikacin, A. baumannii ABI003",16 µg/mL
same,Peptide MIC Alone,"bacterial isolates; 1. Amikacin, E. faecalis EFS008",8 µg/mL
same,Peptide MIC Alone,"bacterial isolates; 1. Amikacin, P. aeruginosa PA022",64 µg/mL
same,Peptide MIC Alone,"bacterial isolates; 1. Amikacin, P. aeruginosa PA037",>128 µg/mL
same,Peptide MIC Alone,"bacterial isolates; 1. Amikacin, S. maltophilia SMA018",32 µg/mL
same,Peptide MIC Alone,"bacterial isolates; 1. Amikacin, S. maltophilia SMA022",>128 µg/mL
same,Peptide MIC Alone,"bacterial isolates; 4. Gentamicin, A. baumannii ABI001",16 µg/mL
same,Peptide MIC Alone,"bacterial isolates; 4. Gentamicin, A. baumannii ABI002",16 µg/mL
same,Peptide MIC Alone,"bacterial isolates; 4. Gentamicin, A. calcoaceticus AC001",32 µg/mL
same,Peptide MIC Alone,"bacterial isolates; 4. Gentamicin, E. faecalis EFS008",4 µg/mL
same,Peptide MIC Alone,"bacterial isolates; 4. Gentamicin, P. aeruginosa PA022",64 µg/mL
same,Peptide MIC Alone,"bacterial isolates; 4. Gentamicin, P. aeruginosa PA041",>128 µg/mL
same,Peptide MIC Alone,"bacterial isolates; 4. Gentamicin, S. aureus SA014 MRSA",8 µg/mL
same,Peptide MIC Alone,"bacterial isolates; 4. Gentamicin, S. maltophilia SMA016",>128 µg/mL
same,Peptide MIC Alone,"bacterial isolates; 4. Gentamicin, S. maltophilia SMA019",32 µg/mL
same,Amikacin MIC + Peptide,bacterial isolates; A. baumannii ABI001,0.125 µg/mL
same,Gentamicin MIC + Peptide,bacterial isolates; A. baumannii ABI001,4 µg/mL
same,Peptide MIC + Amikacin,bacterial isolates; A. baumannii ABI001,16 µg/mL
same,Peptide MIC + Gentamicin,bacterial isolates; A. baumannii ABI001,4 µg/mL
same,Gentamicin MIC + Peptide,bacterial isolates; A. baumannii ABI002,2 µg/mL
same,Peptide MIC + Gentamicin,bacterial isolates; A. baumannii ABI002,4 µg/mL
same,Amikacin MIC + Peptide,bacterial isolates; A. baumannii ABI003,0.5 µg/mL
same,Peptide MIC + Amikacin,bacterial isolates; A. baumannii ABI003,8 µg/mL
same,Gentamicin MIC + Peptide,bacterial isolates; A. calcoaceticus AC001,1 µg/mL
same,Peptide MIC + Gentamicin,bacterial isolates; A. calcoaceticus AC001,4 µg/mL
same,Amikacin MIC + Peptide,bacterial isolates; E. faecalis EFS008,8 µg/mL
same,Gentamicin MIC + Peptide,bacterial isolates; E. faecalis EFS008,64 µg/mL
same,Peptide MIC + Amikacin,bacterial isolates; E. faecalis EFS008,0.25 µg/mL
same,Peptide MIC + Gentamicin,bacterial isolates; E. faecalis EFS008,0.5 µg/mL
same,Amikacin MIC + Peptide,bacterial isolates; P. aeruginosa PA022,8 µg/mL
same,Gentamicin MIC + Peptide,bacterial isolates; P. aeruginosa PA022,8 µg/mL
same,Peptide MIC + Amikacin,bacterial isolates; P. aeruginosa PA022,16 µg/mL
same,Peptide MIC + Gentamicin,bacterial isolates; P. aeruginosa PA022,8 µg/mL
same,Amikacin MIC + Peptide,bacterial isolates; P. aeruginosa PA037,2 µg/mL
same,Peptide MIC + Amikacin,bacterial isolates; P. aeruginosa PA037,32 µg/mL
same,Gentamicin MIC + Peptide,bacterial isolates; P. aeruginosa PA041,2 µg/mL
same,Peptide MIC + Gentamicin,bacterial isolates; P. aeruginosa PA041,16 µg/mL
same,Gentamicin MIC + Peptide,bacterial isolates; S. aureus SA014 MRSA,1 µg/mL
same,Peptide MIC + Gentamicin,bacterial isolates; S. aureus SA014 MRSA,4 µg/mL
same,Gentamicin MIC + Peptide,bacterial isolates; S. maltophilia SMA016,64 µg/mL
same,Peptide MIC + Gentamicin,bacterial isolates; S. maltophilia SMA016,16 µg/mL
same,Amikacin MIC + Peptide,bacterial isolates; S. maltophilia SMA018,8 µg/mL
same,Peptide MIC + Amikacin,bacterial isolates; S. maltophilia SMA018,8 µg/mL
same,Gentamicin MIC + Peptide,bacterial isolates; S. maltophilia SMA019,8 µg/mL
same,Peptide MIC + Gentamicin,bacterial isolates; S. maltophilia SMA019,8 µg/mL
same,Amikacin MIC + Peptide,bacterial isolates; S. maltophilia SMA022,8 µg/mL
same,Peptide MIC + Amikacin,bacterial isolates; S. maltophilia SMA022,16 µg/mL
same,FIC,"bacterial isolates; peptide + Amikacin, A. baumannii ABI001",0.50
same,FIC,"bacterial isolates; peptide + Amikacin, A. baumannii ABI003",0.53
same,FIC,"bacterial isolates; peptide + Amikacin, E. faecalis EFS008",0.28
same,FIC,bacterial isolates; [3],0.38
same,FIC,"bacterial isolates; peptide + Amikacin, P. aeruginosa PA037",0.25
same,FIC,"bacterial isolates; peptide + Amikacin, S. maltophilia SMA018",0.31
same,FIC,"bacterial isolates; peptide + Amikacin, S. maltophilia SMA022",0.09
same,FIC,bacterial isolates; [4],0.31
same,FIC,bacterial isolates; [5],0.31
same,FIC,bacterial isolates; [6],0.25
same,FIC,"bacterial isolates; peptide + Gentamicin, E. faecalis EFS008",0.38
same,FIC,"bacterial isolates; peptide + Gentamicin, P. aeruginosa PA022",0.38
same,FIC,bacterial isolates; [7],0.31
same,FIC,"bacterial isolates; peptide + Gentamicin, S. aureus SA014 MRSA",0.53
same,FIC,"bacterial isolates; peptide + Gentamicin, S. maltophilia SMA016",0.31
same,FIC,bacterial isolates; [8],0.38
same,Peptide MIC + Amikacin,[1]; A. baumannii,4 µg/mL
same,Peptide MIC Alone,"[1]; A. baumannii, Amikacin section",32 µg/mL
same,Peptide MIC + Amikacin,[1]; S. aureus MRSA,4 µg/mL
same,Peptide MIC + Gentamicin,[1]; S. aureus MRSA,4 µg/mL
same,Peptide MIC Alone,"[1]; S. aureus MRSA, Amikacin section",8 µg/mL
same,Peptide MIC Alone,"[1]; S. aureus MRSA, Gentamicin section",8 µg/mL
same,FIC,"[1]; peptide + Amikacin, A. baumannii",0.25
same,FIC,"[1]; peptide + Gentamicin, S. aureus MRSA",0.53
same,Gentamicin MIC + Peptide,[2]; A. baumannii ABI001,4 µg/mL
same,Peptide MIC + Gentamicin,[2]; A. baumannii ABI001,4 µg/mL
same,Peptide MIC Alone,"[2]; A. baumannii ABI001, Gentamicin section",16 µg/mL
same,Gentamicin MIC + Peptide,[2]; A. baumannii ABI002,2 µg/mL
same,Peptide MIC + Gentamicin,[2]; A. baumannii ABI002,4 µg/mL
same,Peptide MIC Alone,"[2]; A. baumannii ABI002, Gentamicin section",16 µg/mL
same,Gentamicin MIC + Peptide,[2]; A. calcoaceticus AC001,1 µg/mL
same,Peptide MIC + Gentamicin,[2]; A. calcoaceticus AC001,4 µg/mL
same,Peptide MIC Alone,"[2]; A. calcoaceticus AC001, Gentamicin section",32 µg/mL
same,Amikacin MIC + Peptide,[2]; P. aeruginosa PA022,8 µg/mL
same,Peptide MIC + Amikacin,[2]; P. aeruginosa PA022,16 µg/mL
same,Peptide MIC Alone,"[2]; P. aeruginosa PA022, Amikacin section",64 µg/mL
same,Gentamicin MIC + Peptide,[2]; P. aeruginosa PA023,4 µg/mL
same,Peptide MIC + Gentamicin,[2]; P. aeruginosa PA023,16 µg/mL
same,Peptide MIC Alone,"[2]; P. aeruginosa PA023, Gentamicin section",>128 µg/mL
same,Gentamicin MIC + Peptide,[2]; P. aeruginosa PA041,2 µg/mL
same,Peptide MIC + Gentamicin,[2]; P. aeruginosa PA041,16 µg/mL
same,Peptide MIC Alone,"[2]; P. aeruginosa PA041, Gentamicin section",>128 µg/mL
same,Gentamicin MIC + Peptide,[2]; S. maltophilia SMA017,2 µg/mL
same,Peptide MIC + Gentamicin,[2]; S. maltophilia SMA017,16 µg/mL
same,Peptide MIC Alone,"[2]; S. maltophilia SMA017, Gentamicin section",128 µg/mL
same,Gentamicin MIC + Peptide,[2]; S. maltophilia SMA019,0.5 µg/mL
same,Peptide MIC + Gentamicin,[2]; S. maltophilia SMA019,16 µg/mL
same,Peptide MIC Alone,"[2]; S. maltophilia SMA019, Gentamicin section",32 µg/mL
same,FIC,[2]; [3],0.38
same,FIC,[2]; [4],0.31
same,FIC,[2]; [5],0.31
same,FIC,[2]; [6],0.25
same,FIC,"[2]; peptide + Gentamicin, P. aeruginosa PA023",0.56
same,FIC,[2]; [7],0.31
same,FIC,"[2]; peptide + Gentamicin, S. maltophilia SMA017",0.16
same,FIC,[2]; [8],0.51
